Measured values reported in US10376520B2, “Methods for the treatment of cardiovascular disorders” (Galapagos NV, priority 2015, dated 2019).

System: RA patients
Experiment: Atherogenic index, Study 2 (RA patients, monotherapy)
Format: in vivo, human
Description: As used herein, the term ‘atherogenic index’ refers to
Double-blind, placebo-controlled, monotherapy study in subjects with moderately to severely active RA who have an inadequate response to methotrexate (MTX) (oral or parenteral).
Twelve weeks of treatment with Compound 1 (dosed as a [Compound 1:HCl:3H2O]) at 50 mg, 100 mg, or 200 mg q.d.; or placebo. At Week 12, all subjects on placebo and the subjects on the 50 mg dose who have not achieved 20% improvement in swollen joint count (SJC66) and tender joint count (TJC68) will be assigned to 100 mg q.d. in a blinded fashion and will continue treatment until Week 24. Subjects in the other groups will maintain their randomized treatment until Week 24.
The atherogenic index has been identified to be a good predictor of cardiovascular disorders risks and is calculated as follows: […]

[1] = Placebo switching to 100 mg q.d., week 16
[2] = Placebo switching to 100 mg q.d., week 20
[3] = Placebo switching to 100 mg q.d., week 24

SMILES: O=C(Nc1nc2cccc(-c3ccc(CN4CCS(=O)(=O)CC4)cc3)n2n1)C1CC1 [Compound 1, cyclopropanecarboxylic acid {5-[4-(1,1-dioxo-thiomorpholin-4-ylmethyl)-phenyl]-[1,2,4]triazolo[1,5-a]pyridin-2yl}-amide]
- Atherogenic index Median CFB - 12 weeks results (100 mg q.d., week 4): -0.10 mmol/L
- Atherogenic index Median CFB - 24 weeks results (100 mg q.d., week 4): -0.10 mmol/L
- Atherogenic index Median percentage CFB - 12 weeks results (100 mg q.d., week 4): −3.65%
- Atherogenic index Median percentage CFB - 24 weeks results (100 mg q.d., week 4): −3.65%
- Atherogenic index Mean CFB - 12 weeks results (100 mg q.d., week 8): -0.13 mmol/L
- Atherogenic index Mean percentage CFB - 12 weeks results (100 mg q.d., week 8): −3.37%
- Atherogenic index Mean percentage CFB - 24 weeks results (100 mg q.d., week 8): −3.37%
- Atherogenic index Median CFB - 12 weeks results (100 mg q.d., week 8): -0.10 mmol/L
- Atherogenic index Median CFB - 24 weeks results (100 mg q.d., week 8): -0.10 mmol/L
- Atherogenic index Median percentage CFB - 24 weeks results (100 mg q.d., week 8): −1.45%
- Atherogenic index Mean CFB - 12 weeks results (100 mg q.d., week 12): -0.07 mmol/L
- Atherogenic index Mean percentage CFB - 24 weeks results (100 mg q.d., week 12): −1.37%
- Atherogenic index Median CFB - 12 weeks results (100 mg q.d., week 12): -0.10 mmol/L
- Atherogenic index Median CFB - 24 weeks results (100 mg q.d., week 12): -0.10 mmol/L
- Atherogenic index Median percentage CFB - 12 weeks results (100 mg q.d., week 12): −2.78%
- Atherogenic index Median percentage CFB - 24 weeks results (100 mg q.d., week 12): −2.78%
- Atherogenic index Mean percentage CFB - 24 weeks results (100 mg q.d., week 16): −4.43%
- Atherogenic index Median CFB - 24 weeks results (100 mg q.d., week 16): -0.20 mmol/L
- Atherogenic index Median percentage CFB - 24 weeks results (100 mg q.d., week 16): −4.76%
- Atherogenic index Mean percentage CFB - 24 weeks results (100 mg q.d., week 20): −2.50%
- Atherogenic index Median CFB - 24 weeks results (100 mg q.d., week 20): 0.00 mmol/L
- Atherogenic index Median percentage CFB - 24 weeks results (100 mg q.d., week 20): 0.00%
- Atherogenic index Mean percentage CFB - 24 weeks results (100 mg q.d., week 24): −0.41%
- Atherogenic index Median CFB - 24 weeks results (100 mg q.d., week 24): 0.00 mmol/L
- Atherogenic index Median percentage CFB - 24 weeks results (100 mg q.d., week 24): 0.00%
- Atherogenic index Mean CFB - 12 weeks results (200 mg q.d., week 1): 0.15 mmol/L
- Atherogenic index Mean percentage CFB - 12 weeks results (200 mg q.d., week 1): 4.43%
- Atherogenic index Mean percentage CFB - 24 weeks results (200 mg q.d., week 1): 4.43%
- Atherogenic index Median CFB - 12 weeks results (200 mg q.d., week 1): 0.10 mmol/L
- Atherogenic index Median CFB - 24 weeks results (200 mg q.d., week 1): 0.10 mmol/L
- Atherogenic index Median percentage CFB - 12 weeks results (200 mg q.d., week 1): 1.96%
- Atherogenic index Median percentage CFB - 24 weeks results (200 mg q.d., week 1): 1.96%
- Atherogenic index Mean CFB - 12 weeks results (200 mg q.d., week 2): -0.09 mmol/L
- Atherogenic index Mean percentage CFB - 12 weeks results (200 mg q.d., week 2): −2.14%
- Atherogenic index Mean percentage CFB - 24 weeks results (200 mg q.d., week 2): −2.14%
- Atherogenic index Median CFB - 12 weeks results (200 mg q.d., week 2): 0.00 mmol/L
- Atherogenic index Median CFB - 24 weeks results (200 mg q.d., week 2): 0.00 mmol/L
- Atherogenic index Median percentage CFB - 12 weeks results (200 mg q.d., week 2): 0.00%
- Atherogenic index Median percentage CFB - 24 weeks results (200 mg q.d., week 2): 0.00%
- Atherogenic index Mean CFB - 12 weeks results (200 mg q.d., week 4): -0.18 mmol/L
- Atherogenic index Mean percentage CFB - 12 weeks results (200 mg q.d., week 4): −3.89%
- Atherogenic index Mean percentage CFB - 24 weeks results (200 mg q.d., week 4): −3.89%
- Atherogenic index Median CFB - 12 weeks results (200 mg q.d., week 4): -0.10 mmol/L
- Atherogenic index Median CFB - 24 weeks results (200 mg q.d., week 4): -0.10 mmol/L
- Atherogenic index Median percentage CFB - 12 weeks results (200 mg q.d., week 4): −3.65%
- Atherogenic index Median percentage CFB - 24 weeks results (200 mg q.d., week 4): −3.65%
- Atherogenic index Mean CFB - 12 weeks results (200 mg q.d., week 8): -0.16 mmol/L
- Atherogenic index Mean percentage CFB - 12 weeks results (200 mg q.d., week 8): −3.33%
- Atherogenic index Mean percentage CFB - 24 weeks results (200 mg q.d., week 8): −3.33%
- Atherogenic index Median CFB - 12 weeks results (200 mg q.d., week 8): -0.10 mmol/L
- Atherogenic index Median CFB - 24 weeks results (200 mg q.d., week 8): -0.10 mmol/L
- Atherogenic index Median percentage CFB - 12 weeks results (200 mg q.d., week 8): −3.33%
- Atherogenic index Median percentage CFB - 24 weeks results (200 mg q.d., week 8): −3.33%
- Atherogenic index Mean CFB - 12 weeks results (200 mg q.d., week 12): -0.04 mmol/L
- Atherogenic index Mean percentage CFB - 12 weeks results (200 mg q.d., week 12): 0.54%
- Atherogenic index Mean percentage CFB - 24 weeks results (200 mg q.d., week 12): 0.54%
- Atherogenic index Median CFB - 12 weeks results (200 mg q.d., week 12): 0.00 mmol/L
- Atherogenic index Median CFB - 24 weeks results (200 mg q.d., week 12): 0.00 mmol/L
- Atherogenic index Median percentage CFB - 12 weeks results (200 mg q.d., week 12): 0.00%
- Atherogenic index Median percentage CFB - 24 weeks results (200 mg q.d., week 12): 0.00%
- Atherogenic index Mean percentage CFB - 24 weeks results (200 mg q.d., week 16): 0.42%
- Atherogenic index Median CFB - 24 weeks results (200 mg q.d., week 16): 0.00 mmol/L
- Atherogenic index Median percentage CFB - 24 weeks results (200 mg q.d., week 16): 0.00%
- Atherogenic index Mean percentage CFB - 24 weeks results (200 mg q.d., week 20): −1.40%
- Atherogenic index Median CFB - 24 weeks results (200 mg q.d., week 20): -0.20 mmol/L
- Atherogenic index Median percentage CFB - 24 weeks results (200 mg q.d., week 20): −3.77%
- Atherogenic index Mean percentage CFB - 24 weeks results (200 mg q.d., week 24): 0.92%
- Atherogenic index Median CFB - 24 weeks results (200 mg q.d., week 24): -0.10 mmol/L
- Atherogenic index Median percentage CFB - 24 weeks results (200 mg q.d., week 24): −2.58%
- Atherogenic index Mean percentage CFB - 24 weeks results [1]: −6.56%
- Atherogenic index Median CFB - 24 weeks results [1]: -0.20 mmol/L
- Atherogenic index Median percentage CFB - 24 weeks results [1]: −5.40%
- Atherogenic index Mean percentage CFB - 24 weeks results [2]: −5.24%
- Atherogenic index Median CFB - 24 weeks results [2]: -0.30 mmol/L
- Atherogenic index Median percentage CFB - 24 weeks results [2]: −7.87%
- Atherogenic index Mean percentage CFB - 24 weeks results [3]: −3.22%
- Atherogenic index Median CFB - 24 weeks results [3]: -0.10 mmol/L
- Atherogenic index Median percentage CFB - 24 weeks results [3]: −3.57%
